According to article PMC9532951, “Identification and characterization of a novel SNAT2 (SLC38A2) inhibitor reveals synergy with glucose transport inhibition in cancer cells” (Frontiers in Pharmacology, 2022):
“And” between values parts separate entries of the source, which are not always exact repeats. Equal entries are not always repeated.

Assays:
Type in all cases: cell-based, human
HCC1806 cells = test: [14C]alanine uptake in non-depleted HCC1806 cells; details: amino acid replete HCC1806 cells
Protocol: Functional characterisation of plasma membrane transporters in human cancer cells was determined at 37°C using an array of radiolabelled amino acid substrates. Modified Hanks HEPES-buffered salts solution (mHBSS; 137 mM NaCl; 5.4 mM KCl; 2.7 mM K2HPO4; 1 mM CaCl2; 0.5 mM MgCl2; 0.44 mM KH2PO4; 0.4 mM MgSO4; 5 mM D-glucose; 5 mM HEPES; pH 7.4) was used to wash and incubate cells where sodium dependent transport was measured, while N-methyl-D-glucamine (NMDG) and potassium salts substituted sodium in NMDG mHBSS to measure sodium independent uptake. For the assay, cells were seeded in 35 mm dishes and, once confluent, were washed thrice with warm mHBSS solution and incubated with mHBSS containing an 100 µM amino acid at a final specific activity of ≥2000 cpm/nmol (U-[^14C]amino acids were from PerkinElmer). After 6 min, cells were washed thrice with ice-cold mHBSS, lysed with 500 µl of 0.1 M HCl, detached with a cell scraper and triturated. A 400 µl aliquot was used for scintillation counting, while the remainder was saved for protein mass quantification by Bradford assay. Transport rates were normalised to the protein content of the culture dish.

SNAT1 and SNAT2 [1] = test: High-throughput compound screen, FMP assay in 384-well format (primary, confirmatory, control compounds)
Protocol: For the high-throughput compound screen, the FMP assay was adapted into a 384-well format within the ANU Centre for Therapeutic Discovery. […] Compounds Australia stores compounds under robust environmental conditions and supplies them in assay ready plate format. We screened 33,934 compounds from the Collection Scaffold Library. Cells (10,000/well) were seeded into Corning 384-well black walled plates (CLS3985; Sigma-Aldrich) using a Multidrop Combi liquid dispensing robot (Thermo Fisher) in a 40 µl volume. Once seeded, cells were allowed to grow in a microplate incubator (Liconic) for 24 h at 37°C (humidified atmosphere with 95% air and 5% CO2). Subsequently, plates were washed thrice with 50 µL of mHBSS using a 405 TS washer (BioTek). Then, 50 µl of starvation medium was added and cells were incubated again for 24 h.
Assay-ready compound plates (384 well plates containing compound or DMSO controls) were then prepared prior to addition to cells. In addition to the supplied compounds, 5 µl γ-glutamyl-hydroxamate (GHX, 60 mM dissolved in mHBSS, serving as an inhibitor control) was added into inhibitor control wells using a JANUS G3 robot (PerkinElmer). Subsequently, 25 uL of mHBSS was dispensed into all wells of the 384 well plate using a Multidrop Combi. All samples were then mixed using the JANUS G3 robot and 15 µl dispensed on top of the cell monolayer to reach a final concentration of 10.05 µM.
The FMP dye was solved freshly with mHBSS, 20 µl of which was deposited into each well using the Multidrop Combi, and the cells were incubated at room temperatur for 30 min. Each plate was then placed in an EnVision microplate reader (PerkinElmer) and a single baseline measurement was taken for each well (bottom reads excitation at 531, emission at 579 nm). The plate was then transferred to the Multidrop Combi and 10 µl/well of 5 mM glutamine was dispensed into each well. After linearly shaking for 5 s, microplates were returned to the EnVision microplate reader for a single post-injection measurement per well. The change of fluorescence was measured after 60 s.
Z′ scores were calculated from the controls onboard each of the 384-well plates assayed in the primary and secondary screen as described by Zhang et al., ([Zhang et al., 1999]). For the control inhibitor γ-glutamyl-hydroxamate (GHX) a Z’ score of 0.717 was determined, which was a sufficient signal for a HTS.

SNAT1 and SNAT2 [2] = test: FMP assay in HCC1806 clones C10 (ASCT2ko) and D126 (ASCT2ko, SNAT2ko)
Protocol: To delete the SNAT2 (SLC38A2) gene in modified HCC1806 cells (clone C10 nullizygous for ASCT2 ([Broer et al., 2019])), the GeneArt CRISPR Nuclease Vector with OFP Reporter Kit (Invitrogen; A21174) was employed and complementary 19–20 bp long single-stranded oligonucleotides with overhangs were designed to produce a guide RNA (gRNA) for the Cas9 nuclease that would target exon 7 of the SNAT2 gene. Colonies were analysed by sequencing using the U6 primer included in the GeneArt CRISPR Nuclease Vector with OFP Reporter kit. Plasmids that contained the correct CRISPR nuclease construct were then used to transfect HCC1806 cells with Lipofectamine 2000 (Invitrogen). Prior to transfection, medium was replaced with 2 ml of fresh DMEM/F-12 (supplemented with 10% heat-inactivated FBS and 2 mM glutamine). Plasmid DNA (4 µg) and 10 µL of Lipofectamine 2000 were incubated separately for 5 min at room temperature in 500 µl of Opti-MEM (Invitrogen) before being combined and incubated for a further 30 min at room temperature. The DNA-Lipofectamine complex was then added to the cells in a dropwise manner and allowed to be absorbed over 6 h at 37°C, after which the medium was renewed with fresh DMEM/F-12. Cells were checked for red fluorescence using an EVOS FL cell imaging system (Thermo Fisher Scientific) 48–72 h post transfection. Subsequently, cells were detached using 0.25% Trypsin EDTA. After harvesting and washing thrice with PBS (pH 7.4), cells were resuspended in PBS (pH 7.4) supplemented with 5 mM glucose and 1% dialysed and heat inactivated FBS and passed through a 100 μm cell strainer. The cell filtrate was then pelleted once more and resuspended in the same buffer. Cells were sorted using an ARIA II FACS machine and individually dispensed into the wells of a 96-well plate. Nullizygous clones were identified using a series of assays including the FLIPR membrane potential assay, western blotting and sequencing.
The FLIPR Membrane Potential Blue Explorer Kit (Molecular Devices) was used to characterise inhibitors and to optimise a high-throughput compound screen. Cells were seeded at approximately 60,000 cells/well on a 96-well plate and allowed to attach and grow overnight in a cell incubator. The next day, the cells were washed once with mHBSS and incubated in a starvation medium (composed of mHBSS with 1% dialysed heat-inactivated FBS, 23 mM NaHCO3, 10 U/ml penicillin and 10 μg/ml streptomycin) for 24 h. Cells were then washed once with mHBSS and incubated with 50 µl of the mHBSS-resuspended FMP assay dye and 50 µl of mHBSS (with or without inhibitors) and incubated at room temperature for 30 min. The plate was then placed in an EnSpire Multimode plate reader (PerkinElmer) and four sequential measurements of fluorescence were recorded as a baseline reference. Immediately after the baseline measurements were taken, 25 µl of 5 mM glutamine dissolved in mHBSS was injected into each well and the plate was shaken orbitally for 5 s before a series of consecutive fluorescence measurements were taken. The excitation wavelength was set to 530 nm and the emission was detected at 565 nm. The Δ fluorescent signal reported in the figures was taken 30 s after substrate addition. After the assay was complete, the liquid content of the plate was carefully removed, and the cell monolayer inspected to ensure it remained intact throughout the course of the assay.

Question: `C[N+](C)(C)CC(=O)O` [Betaine, betaine] was tested. Which “inhibition of [14C]alanine uptake” value (HCC1806 cells) did it give?
Answer: about 10%

Question: Which “% (delta) Fluorescence Signal” value (SNAT1 and SNAT2 [1]; Figure 3A, ranked hits of the high-throughput screen, FMP assay) does the source give for `Cc1ccc(S(=O)(=O)N(C)c2ccsc2C(=O)NCc2ccccc2C(F)(F)F)cc1` [Compound 57_E, 3-(N-methyl (4-methylphenyl)sulfonamido)-N-(2-trifluoromethylbenzyl)thiophene-2-carboxamide] here?
Answer: 58.6322%

Question: What about the “inhibition of [14C]alanine uptake” value (HCC1806 cells) of the same compound?
Answer: about 10%

Question: For `N[C@@H](CCC(=O)NO)C(=O)O` [GHX, L-glutamic acid γ-monohydroxamate], which “reduction of FMP signal” value (SNAT1 and SNAT2 [1]; 6 mM, 1 mM glutamine) is on record?
Answer: 92%

Question: And the “block of glutamine (1 mM) FMP signal” value (SNAT1 and SNAT2 [2]; C10 cells)?
Answer: fully blocked

Question: And the FMP fluorescence (SNAT1 and SNAT2 [2]; C10 cells, time 0, replicates 1-10)?
Answer: 22566 and 24924 and 25754 and 31415 and 31062 and 25958 and 24037 and 24199 and 31861 and 22458

Question: And the FMP fluorescence (SNAT1 and SNAT2 [2]; C10 cells, time 30, replicates 1-10)?
Answer: 22979 and 25257 and 24877 and 31065 and 30653 and 25037 and 22964 and 23247 and 31019 and 21524

Question: And the FMP fluorescence (SNAT1 and SNAT2 [2]; C10 cells, time 40, replicates 1-10)?
Answer: 22836 and 25183 and 25086 and 31077 and 30677 and 25349 and 23314 and 23279 and 31141 and 21715

Question: And the FMP fluorescence (SNAT1 and SNAT2 [2]; C10 cells, time 50, replicates 1-10)?
Answer: 22729 and 25095 and 24771 and 30889 and 30642 and 25022 and 23105 and 23276 and 31320 and 21555

Question: And the FMP fluorescence (SNAT1 and SNAT2 [2]; C10 cells, time 60, replicates 1-10)?
Answer: 22771 and 25085 and 24871 and 30919 and 30705 and 25319 and 23018 and 23144 and 31224 and 21790

Question: And the FMP fluorescence (SNAT1 and SNAT2 [2]; C10 cells, time 70, replicates 1-10)?
Answer: 22546 and 24933 and 24936 and 30890 and 30628 and 25268 and 22856 and 23122 and 31403 and 21489

Question: And the FMP fluorescence (SNAT1 and SNAT2 [2]; C10 cells, time 80, replicates 1-10)?
Answer: 22447 and 25159 and 24725 and 30733 and 30614 and 25267 and 22687 and 23011 and 31397 and 21490

Question: And the FMP fluorescence (SNAT1 and SNAT2 [2]; C10 cells, time 90, replicates 1-10)?
Answer: 22259 and 25131 and 24741 and 30924 and 30357 and 25175 and 22779 and 23104 and 30871 and 21284

Question: And the FMP fluorescence (SNAT1 and SNAT2 [2]; C10 cells, time -10, replicates 1-10)?
Answer: 23300 and 25374 and 26077 and 32072 and 31514 and 26200 and 24526 and 24442 and 32334 and 22554

Question: What about the FMP fluorescence (SNAT1 and SNAT2 [2]; C10 cells, time -20, replicates 1-10) of the same compound?
Answer: 23913 and 26637 and 26782 and 32769 and 33018 and 26873 and 25394 and 25312 and 33318 and 23095

Question: For `NC(=O)CC[C@H](N)C(=O)O` [Glutamine, glutamine], which “FMP signal in D126 cells (ASCT2ko, SNAT2ko) compared to C10” value (SNAT1 and SNAT2 [2]; MeAIB 10 mM, glutamine 1 mM) is on record?
Answer: 42%
